Measurements published in US6710090B2, “Inhibitory or blocking agents of molecular generating and/or inducing functions” (priority 1994, dated 2004).

How the values were obtained:
thrombus = experiment: Thrombolytic effect on thrombus, phase contrasted microscopy; assay type: cell-based, human or canine
Method: In order to investigate a thrombolytic effect of Yoshixol on thrombus, 1 ml of human blood or canine blood were sampled by a syringe and transferred into the Petori-schale (grainer lab. GmHB) so that thrombus formation and rouleaux formation were observed under a phase contrasted microscopy (IMT-2, Olympus Co.). Then, 1 μl of Yoshixol was added in the blood sample when all visual fields could not be discriminated as an normal individual erythrocyte by thrombus formation. Then, a thrombolytic process of the thrombus was investigated and the process was recorded to a video tape via a collar video camera (CCD-IRIS, Sony Co.). The video pictures were analyzed as a liquid phenomena by an original software of dynamic state analysis. […] And, while original form of erythrocyte was recovered, each erythrocyte was marvelously dispersed from thrombus. […] And, Yoshixol has a potential to improve circulatory hindrance which is disturbed physiological role on original blood such as fluidability by being solidability. Yoshixol can apply as thrombolytic agents as well as inhibitory agents for thrombus formation.

[1] = system: keratinocytes isolated from a human skin; experiment: Anti-cancer effect, cultured keratinocytes, microscopy; assay type: cell-based; details: 4 μl of Yoshixol
Source text: Adhesive factors between cells play an important role on prolifelation of malignant tumor cells and metastasis. In order to investigate the adhesive factors between cells, intracellular structure of cultured keratinocytes are utilized to observe. Thus, by using keratinocytes isolated from a human skin and cultured in this invention, structure between cells and cellular aspect of keratinocytes (5 days passed after culturing of second generation) were investigated by phase microscope (Olympus Co., IMT-2), transmission type (JEOL, Ltd. JEM 1200, EXII) and scanning type (JEOL, Ltd. JSM-6000F) electron microscopes. In the non-treated group with Yoshixol, the cultured cells proliferated monologously and in order as like as a stone wall. There were normal aspects of intracellular organella and mitosis. There were not blank spaces between cell and filling with intracellular matrix (referred FIGS. 16a, 17a). […] In addition, extracellular matrix has been also dispersed in an irregularity from cells as various sizes of particles (referred FIGS. 16b, 17b). […] And also, Yoshixol has an inhibitory effect of cell prolifelation and metastasis such as tumor cells. […]

[2] = system: human blood (erythrocytes); experiment: Preservative effect on organs and tissues, stored human blood; assay type: cell-based; details: 5 ml human blood, 4 μl of Yoshixol
Method: After sampling 5 ml of human blood from a cubital vein, the blood sample was replaced into the vacuum tube with 10 ml capacity and was mixed in a gentle. The vacuum tubes were divided by two group; one group is nontreated and another treated with 4 μl of Yoshixol. Then, changes in morphological aspects of blood, which were stored at room temperature, were observed by a transmission type and scanning electron microscopes at 30 minutes, one hour and 1 month after the sampling. […] It was existed likely as a destroyed and aggregated mass. […] Many stomatocytes (lip-like erythrocyte) and echinocyte which is appeared at a lack of pyruvate kinase were observed.

[3] = system: atypical mycobacteria (Mycobacterium Rapid Grower); experiment: Anti-microbacterial effect on acid-fast bacteria; assay type: cell-based
[4] = system: anti-A blood serum, anti-B blood serum; experiment: Function of serum antibodies for ABO blood types; assay type: biochemical, human
Method: It is also known that antibody has a structure of Y shape which consists of 2 pairs of light chain and heavy chain in generally, and that the fundamental structure is maintained by S—S bond. Serum antibody reaction of ABO blood types is important historically to understand various kinds of antigen-antibody reactions. In this invention, effect of Yoshixol (4 μl) on the standard judgment of ABO blood types was investigated by using human blood of A type, B type and O type (400 μl, respectively).

mouse hepatoma cells = experiment: Anti-cancer effect, cultured mouse hepatoma cells; assay type: cell-based; details: compared with keratinocytes treated with Yoshixol
[5] = Acute and chronic toxicity, intravenous; assay type: in vivo, rabbit and dog
Method: In order to investigate a toxicity in vivo, the solution which was mixed 50 μl/Kg of Yoshixol with 1 ml of 20% glucose solution was administered intravenously in unanesthetized animals (rabbit and dog). […] Even though intravenous administration alone was done, it may be confirmed that it is safety.

thrombin = thrombin (Homo sapiens, UniProt P00734); experiment: Thrombin treated with Yoshixol added in fibrinogen, thromboelastgram; assay type: biochemical; parameters: thrombin (Behlinger Manheim-Yamanouchi Co.) was investigated by electrophoresis; purchased Behlinger Manheim-Yamanouchi Co
Method: Effect of Yoshixol (4 μl) on human blood coagulation and fibrin formation (thrombin was added to fibrinogen) were investigated by thromboelastgram (Hellige GMBH, West Germany). Also, a magnitude of fibrin network which is formed at human blood coagulation was investigated by a scanning electron microscopy. Coagulation of human blood without treatment with Yoshixol was started within 1-2 min so that maximum level of coagulation occurred approximately within 15 min, followed by gradual decrease due to activation of fibrinolytic system. Immediately after thrombin is added on fibrinogen, viscosity of the sample started to increase, reached to a maximum level within 5-6 minutes. This maximum level was maintained for periods of 6 hours which was observed (referred FIG. 3a). However, when Yoshixol (4 μl) was added in 0.4 ml of whole blood or fibrinogen (160 mg/dl), onset time of blood coagulation and fibrin formation was delayed to 4-5 minutes and maximum aggregation time was occurred within 6-8 minutes. Maximum level of coagulation after the treatment was inhibited by 90% of control which level was maintained over 6 hours of investigation (referred FIG. 3b).

[6] = beagles, oral 10 μl per body weight
[7] = beagles, oral 10 μl per body weight, 1 week
[8] = rabbit and dog, 50 μl/Kg intravenously

In the case of C=C1CC(C)(C)C=CC1=O [Yoshixol, 4,4-dimethyl-6-methylene-2-cyclohexen-1-one], the “hemolysis due to swelling and rupturing each erythrocyte” value (thrombus; 1 μl of Yoshixol in 1 ml blood sample) is reported as “did not occur”, the “thrombus after adding Yoshixol” value (thrombus; 1 μl of Yoshixol in 1 ml blood sample with thrombus) is reported as “completely individualized to each erythrocyte” and the “aspects of cultured cells” value ([1]; 5 days after culturing of second generation) is reported as “showed diverse irregularity”. The “cell membrane and intracellular organella” value ([1]; electron microscopes) was “destroyed with varieties”, the aggregation of erythrocytes ([2]; room temperature) was “did not show an aggregation with fibrin networks” and the “cell membrane and intracellular organella of erythrocytes” value ([2]; stored at room temperature) was “preserved normally over 1 month”. For the same molecule, the albumin/globulin ratio [6] was “elevated 3 days after administration”, the creatinine phosphokinase [6] was “fell” and the “enzymes such as γ-GPT, GOT, GPT” value [6] was “also fell”. The albumin level [7] was “did not change”, the “changes in concentration of total bilirubin, GOT, GPT, TTT, ZTT, cholinesterase, serum iron, potassium, sodium, chloride, inorganic phosphorus and calcium” value [7] was “did not found” and the “difference in concentration of total cholesterol and triglyceride between groups” value [7] was “did not occur”. The “level of uric acid” value (beagles, oral 10 μl per body weight, during the administration) was “maintained at lower level”, the “total proteins in blood serum” value (beagles, oral 10 μl per body weight, recovery 1 week after stop) was “increased 3 days after administration” and the “levels of nonproteins nitrogen and creatinine in the serum” value (beagles, oral 10 μl per body weight, since 1 day after administration) was 70-80 % of the control. The “TTT and ZTT” value (dog, in vivo, po) was “did not show abnormal values”, the “changes in numbers of red blood cells, white blood cells and platelets” value (dog, in vivo, po) was “did not found” and the “proliferation with evaporating component of Yoshixol” value ([3]; 50 μl in the whole space of the schale, indirect contact, 24 hours, 37° C.) was “did not occur”. The “diameter of inhibition zone of proliferation” value ([3]; at 2 μl) was 22 mm, the “dosage at which formation of inhibition zone of proliferation occurred” value ([3]; brain-heart infusion agar) was 0.2 μl of Yoshixol per 1 ml of the culture medium and the “primary structure of antiserums for ABO blood types (electrophoretic analysis)” value ([4]; after treatment of Yoshixol) was “any change in primary structure of antiserums did not find”. For the same molecule, the “blood aggregation in judgment of ABO blood type” value ([4]; antiserum treated with Yoshixol 4 μl, human blood A, B, O type 400 μl) was “any aggregation did not occur”, the “structure between cells and cellular aspect” value (mouse hepatoma cells) was “observations similar to the above were found” and the “duration of transitional signs after the administration” value [5, 8] was 1 to 2 min. For the same molecule, the platelets [5, 8] was “A change in platelets was not observed”, the “pathological findings in the vital organs, macroscopically and microscopically” value ([5]; rabbit and dog, 50 μl/Kg intravenously, after 1 month) was “any pathological findings were not observed” and the abnormal behavior ([5]; rabbit and dog, 50 μl/Kg intravenously, observation period of 2 hours) was “an abnormal behavior was not found”. For the same molecule, the abnormal behavior ([5]; rabbit and dog, 50 μl/Kg intravenously, observed over 1 month) was “any abnormal behavior did not found”, the white blood cells ([5]; rabbit and dog, 50 μl/Kg intravenously, recovery to normal level at 1 week) was “increased 3 days after administration” and the “examination of blood, anemia” value ([5]; rabbit and dog, 50 μl/Kg intravenously, recovery to the normal after 1 week) was “hyperchromic anemia at the maximum level occurred 3 days after administration”. The “respiration rate, blood pressure, heart rate and movements of an extremity after injection” value ([5]; unanesthetized rabbit and dog, 50 μl/Kg intravenously in 1 ml 20% glucose solution) was “transitional increase in respiration rate, increase in blood pressure and heart rate and active movements of an extremity (not convulsion)” and the “aggregation reaction on thromboelastgram” value (thrombin) was “any of aggregation reaction was not be found”.
